What was measured:
[1] = Test whether cholesterol independently causes inflammation in rabbit corneas (topical drops or intrastromal injection); format: in vivo; conditions: one cornea, examined up to 48 hours post-injection
Procedure: The applications were 30 minutes apart for the first hour, and the remaining applications were 1 hour apart. The corneas were examined periodically for several days. […] The possible effect of cholesterol injected into the corneal stroma was also examined. […] The corneas were examined every 2 hours for the first 8 hours, and then at 24, 30, and 48 hours post-injection.

[2] = tested on: S. pneumoniae strains Avery's, R6, and TIGR4; assay: In vitro incubation of log-phase S. pneumoniae with cholesterol (optical density, plating); format: cell-based, Streptococcus pneumoniae; conditions: 3 hours
Procedure: To determine if cholesterol is bactericidal, log-phase S. pneumoniae were incubated with cholesterol. Three S. pneumoniae strains, Avery's, R6, and TIGR4, were diluted from overnight cultures and grown to log phase (A600=0.3). These bacteria were then incubated with 1% cholesterol in 20% glycerol, 20% glycerol alone, or PBS. The optical density of each strain was determined once per hour for 3 hours, and bacterial loads were determined by plating dilutions of the bacteria onto chocolate agar. […] While cholesterol prevented growth in vitro (outside the cornea), cholesterol had no effect on bacterial growth in the cornea. (See above). Topical application of cholesterol could be used to decrease the numbers of S. pneumoniae on the outside surface of the cornea, and inhibit bacterial infiltration of the corneal surface.

[3] = tested on: encapsulated S. pneumoniae; assay: Rabbit S. pneumoniae keratitis, slit lamp examination (SLE) score; conditions: topical 1% cholesterol in 20% glycerol, 20 and 24 hours post-infection
Staphylococcus aureus = assay: Rabbit Staphylococcus aureus keratitis treated with cholesterol; format: in vivo; conditions: cholesterol 1% in 20% glycerol
[4] = tested on: encapsulated S. pneumoniae; assay: Bacterial load in infected rabbit corneas; format: in vivo, Streptococcus pneumoniae; conditions: topical application
Procedure: Sacrifice of the rabbits occurred immediately following the last SLE time (48 hours post-infection) to avoid unnecessary pain. Corneas were harvested for bacterial quantification or for histopathologic analysis. […] Bacterial loads were determined for control corneas (treated with 20% glycerol only) and corneas treated with the topical cholesterol (1% in 20% glycerol). The bacterial load in the control corneas ranged from 2.48 to 6.60 log colony-forming units, while in the treated corneas the load was 3.68 to 6.59 log colony-forming units.

alpha-toxin = alpha-toxin (Staphylococcus aureus, UniProt P09616); conditions: in vivo
Chain of alpha-toxin (P09616 27-319 limits assumed): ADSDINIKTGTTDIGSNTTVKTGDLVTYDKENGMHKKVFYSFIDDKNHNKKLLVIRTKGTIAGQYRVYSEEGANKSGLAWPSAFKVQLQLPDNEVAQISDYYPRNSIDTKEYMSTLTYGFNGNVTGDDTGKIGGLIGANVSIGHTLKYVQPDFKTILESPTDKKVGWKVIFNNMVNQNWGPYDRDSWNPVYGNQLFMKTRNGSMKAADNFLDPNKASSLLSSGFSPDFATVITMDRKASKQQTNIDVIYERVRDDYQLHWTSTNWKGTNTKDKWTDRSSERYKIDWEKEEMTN

CC(C)CCC[C@@H](C)[C@H]1CC[C@H]2[C@@H]3CC=C4C[C@@H](O)CC[C@]4(C)[C@H]3CC[C@]12C [cholesterol]
inflammation or adverse effect after injection into corneal stroma ([1]; […]): No inflammation or adverse effect was observed
inflammation or adverse effect after injection into corneal stroma ([1]; injection of 0.5% cholesterol in 10% glycerol): No inflammation or adverse effect was observed
effect on bacterial growth in vitro ([2]; strain Avery's, 1% cholesterol in 20% glycerol): prevented the growth
effect on bacterial growth in vitro ([2]; strain R6, 1% cholesterol in 20% glycerol): prevented the growth
corneal severity (SLE), treated versus untreated corneas [3]: essentially the same
inhibition of damaging effects in S. aureus-infected corneas (Staphylococcus aureus): ineffective
bactericidal effect on bacteria once inside the cornea [4]: does not have a bactericidal effect
reduction of pathology associated with alpha-toxin (alpha-toxin): ineffective

From patent US7906498B2, “Cholesterol as an antibiotic for Streptococcus pneumoniae” (priority 2005, dated 2011)
